ChEMBL document CHEMBL1129930, “Analogues of methotrexate in rheumatoid arthritis. 2. Effects of 5-deazaaminopterin, 5,10-dideazaaminopterin, and analogues on type II collagen-induced arthritis in mice” (J Med Chem, 1997)

Assays:
L1210 = assay: Concentration required to inhibit the growth of L1210 cells.; type: functional, cell-based; conditions: Mus musculus
Mus musculus [1] = assay: Incidence of disease (mouse type II collagen) was scored as the percentage of animals within each experimental group that exhibited joint or limb inflammation on day 44 at intraperitoneal dose of 6 mg/kg; type: functional
Mus musculus [2] = assay: Incidence of disease (mouse type II collagen) was scored as the percentage of animals within each experimental group that exhibited joint or limb inflammation on day 44 at intraperitoneal dose of 12 mg/kg; type: functional
Mus musculus [3] = assay: Incidence of disease (mouse type II collagen) was scored as the percentage of animals within each experimental group that exhibited joint or limb inflammation on day 37 at intraperitoneal dose of 18 mg/kg; type: functional
Mus musculus [4] = assay: Tested for antiinflammatory activity on mouse type II collagen arthritis as Paw swelling of all animals in each group on day 23 at intraperitoneal dose of 18 mg/kg; type: functional
Mus musculus [5] = assay: Incidence of disease (mouse type II collagen) was scored as the percentage of animals within each experimental group that exhibited joint or limb inflammation on day 30 at intraperitoneal dose of 18 mg/kg; type: functional
Mus musculus [6] = assay: Incidence of disease (mouse type II collagen) was scored as the percentage of animals within each experimental group that exhibited joint or limb inflammation on day 30 at intraperitoneal dose of 6 mg/kg; type: functional
Mus musculus [7] = assay: Tested for antiinflammatory activity on mouse type II collagen arthritis as Paw swelling of all animals in each group on day 23 at intraperitoneal dose of 6 mg/kg; type: functional
Mus musculus [8] = assay: Incidence of disease (mouse type II collagen) was scored as the percentage of animals within each experimental group that exhibited joint or limb inflammation on day 37 at intraperitoneal dose of 6 mg/kg; type: functional
Mus musculus [9] = assay: Incidence of disease (mouse type II collagen) was scored as the percentage of animals within each experimental group that exhibited joint or limb inflammation on day 37 at intraperitoneal dose of 12 mg/kg; type: functional
Mus musculus [10] = assay: Tested for antiinflammatory activity on mouse type II collagen arthritis as Paw swelling of all animals in each group on day 30 at intraperitoneal dose of 12 mg/kg; type: functional
Mus musculus [11] = assay: Tested for antiinflammatory activity on mouse type II collagen arthritis as Paw swelling of all animals in each group on day 37 at intraperitoneal dose of 12 mg/kg; type: functional
Mus musculus [12] = assay: Tested for antiinflammatory activity on mouse type II collagen arthritis as Paw swelling of all animals in each group on day 30 at intraperitoneal dose of 18 mg/kg; type: functional
[13] = Concentration required to inhibit the growth of chang liver cells.; type: functional; conditions: Homo sapiens
Mus musculus [14] = assay: Tested for antiinflammatory activity on mouse type II collagen arthritis as Paw swelling of all animals in each group on day 23 at intraperitoneal dose of 12 mg/kg; type: functional
Mus musculus [15] = assay: Tested for antiinflammatory activity on mouse type II collagen arthritis as Paw swelling of all animals in each group on day 37 at intraperitoneal dose of 6 mg/kg; type: functional
Mus musculus [16] = assay: Tested for antiinflammatory activity on mouse type II collagen arthritis as Paw swelling of all animals in each group on day 44 at intraperitoneal dose of 18 mg/kg; type: functional
Mus musculus [17] = assay: Incidence of disease (mouse type II collagen) was scored as the percentage of animals within each experimental group that exhibited joint or limb inflammation on day 23 at intraperitoneal dose of 6 mg/kg; type: functional
Mus musculus [18] = assay: Tested for antiinflammatory activity on mouse type II collagen arthritis as Paw swelling of all animals in each group on day 37 at intraperitoneal dose of 18 mg/kg; type: functional
Mus musculus [19] = assay: Incidence of disease (mouse type II collagen) was scored as the percentage of animals within each experimental group that exhibited joint or limb inflammation on day 23 at intraperitoneal dose of 12 mg/kg; type: functional
Mus musculus [20] = assay: Tested for antiinflammatory activity on mouse type II collagen arthritis as Paw swelling of all animals in each group on day 44 at intraperitoneal dose of 6 mg/kg; type: functional
Mus musculus [21] = assay: Incidence of disease (mouse type II collagen) was scored as the percentage of animals within each experimental group that exhibited joint or limb inflammation on day 30 at intraperitoneal dose of 12 mg/kg; type: functional
Mus musculus [22] = assay: Incidence of disease (mouse type II collagen) was scored as the percentage of animals within each experimental group that exhibited joint or limb inflammation on day 23 at intraperitoneal dose of 18 mg/kg; type: functional
Mus musculus [23] = assay: Incidence of disease (mouse type II collagen) was scored as the percentage of animals within each experimental group that exhibited joint or limb inflammation on day 44 at intraperitoneal dose of 18 mg/kg; type: functional
Mus musculus [24] = assay: Tested for antiinflammatory activity on mouse type II collagen arthritis as Paw swelling of all animals in each group on day 30 at intraperitoneal dose of 6 mg/kg; type: functional
Mus musculus [25] = assay: Tested for antiinflammatory activity on mouse type II collagen arthritis as Paw swelling of all animals in each group on day 44 at intraperitoneal dose of 12 mg/kg; type: functional
Mus musculus [26] = assay: Tested for antiinflammatory activity on mouse type II collagen arthritis as Paw swelling of all animals in each group on day 23 at intraperitoneal dose of 0.50 mg/kg; type: functional; conditions: dose 0.5 mg/kg
Mus musculus [27] = assay: Incidence of disease (mouse type II collagen) was scored as the percentage of animals within each experimental group that exhibited joint or limb inflammation on day 23 at intraperitoneal dose of 0.25 mg/kg (deaths observed at 1.5 mg/kg); type: functional
Mus musculus [28] = assay: Incidence of disease (mouse type II collagen) was scored as the percentage of animals within each experimental group that exhibited joint or limb inflammation on day 44 at intraperitoneal dose of 0.50 mg/kg (deaths observed at 1.5 mg/kg); type: functional
Mus musculus [29] = assay: Incidence of disease (mouse type II collagen) was scored as the percentage of animals within each experimental group that exhibited joint or limb inflammation on day 44 at intraperitoneal dose of 0.25 mg/kg (deaths observed at 1.5 mg/kg); type: functional
Mus musculus [30] = assay: Incidence of disease (mouse type II collagen) was scored as the percentage of animals within each experimental group that exhibited joint or limb inflammation on day 37 at intraperitoneal dose of 0.25 mg/kg (deaths observed at 1.5 mg/kg); type: functional
Mus musculus [31] = assay: Tested for antiinflammatory activity on mouse type II collagen arthritis as Paw swelling of all animals in each group on day 30 at intraperitoneal dose of 0.50 mg/kg; type: functional; conditions: dose 0.5 mg/kg
Mus musculus [32] = assay: Tested for antiinflammatory activity on mouse type II collagen arthritis as Paw swelling of all animals in each group on day 44 at intraperitoneal dose of 1 mg/kg; type: functional
Mus musculus [33] = assay: Tested for antiinflammatory activity on mouse type II collagen arthritis as Paw swelling of all animals in each group on day 30 at intraperitoneal dose of 1 mg/kg; type: functional
Mus musculus [34] = assay: Tested for antiinflammatory activity on mouse type II collagen arthritis as Paw swelling of all animals in each group on day 44 at intraperitoneal dose of 0.50 mg/kg; type: functional; conditions: dose 0.5 mg/kg
Mus musculus [35] = assay: Incidence of disease (mouse type II collagen) was scored as the percentage of animals within each experimental group that exhibited joint or limb inflammation on day 30 at intraperitoneal dose of 0.25 mg/kg (deaths observed at 1.5 mg/kg); type: functional
Mus musculus [36] = assay: Incidence of disease (mouse type II collagen) was scored as the percentage of animals within each experimental group that exhibited joint or limb inflammation on day 23 at intraperitoneal dose of 1 mg/kg (deaths observed at 1.5 mg/kg); type: functional
Mus musculus [37] = assay: Tested for antiinflammatory activity on mouse type II collagen arthritis as Paw swelling of all animals in each group on day 30 at intraperitoneal dose of 0.25 mg/kg; type: functional
Mus musculus [38] = assay: Incidence of disease (mouse type II collagen) was scored as the percentage of animals within each experimental group that exhibited joint or limb inflammation on day 30 at intraperitoneal dose of 0.50 mg/kg (deaths observed at 1.5 mg/kg); type: functional
Mus musculus [39] = assay: Incidence of disease (mouse type II collagen) was scored as the percentage of animals within each experimental group that exhibited joint or limb inflammation on day 23 at intraperitoneal dose of 0.50 mg/kg (deaths observed at 1.5 mg/kg); type: functional
Mus musculus [40] = assay: Incidence of disease (mouse type II collagen) was scored as the percentage of animals within each experimental group that exhibited joint or limb inflammation on day 37 at intraperitoneal dose of 0.50 mg/kg (deaths observed at 1.5 mg/kg); type: functional
Mus musculus [41] = assay: Incidence of disease (mouse type II collagen) was scored as the percentage of animals within each experimental group that exhibited joint or limb inflammation on day 30 at intraperitoneal dose of 1 mg/kg (deaths observed at 1.5 mg/kg); type: functional
Mus musculus [42] = assay: Tested for antiinflammatory activity on mouse type II collagen arthritis as Paw swelling of all animals in each group on day 37 at intraperitoneal dose of 0.25 mg/kg; type: functional
Mus musculus [43] = assay: Incidence of disease (mouse type II collagen) was scored as the percentage of animals within each experimental group that exhibited joint or limb inflammation on day 44 at intraperitoneal dose of 1 mg/kg (deaths observed at 1.5 mg/kg); type: functional
Mus musculus [44] = assay: Tested for antiinflammatory activity on mouse type II collagen arthritis as Paw swelling of all animals in each group on day 23 at intraperitoneal dose of 0.25 mg/kg; type: functional
Mus musculus [45] = assay: Tested for antiinflammatory activity on mouse type II collagen arthritis as Paw swelling of all animals in each group on day 37 at intraperitoneal dose of 1 mg/kg; type: functional
Mus musculus [46] = assay: Tested for antiinflammatory activity on mouse type II collagen arthritis as Paw swelling of all animals in each group on day 44 at intraperitoneal dose of 0.25 mg/kg; type: functional
Mus musculus [47] = assay: Incidence of disease (mouse type II collagen) was scored as the percentage of animals within each experimental group that exhibited joint or limb inflammation on day 37 at intraperitoneal dose of 1 mg/kg (deaths observed at 1.5 mg/kg); type: functional
Mus musculus [48] = assay: Tested for antiinflammatory activity on mouse type II collagen arthritis as Paw swelling of all animals in each group on day 37 at intraperitoneal dose of 0.50 mg/kg; type: functional; conditions: dose 0.5 mg/kg

Nc1nc(N)c2cc(CCc3ccc(C(=O)NC(CCC(=O)O)C(=O)O)cc3)cnc2n1 (stereo unspecified)
IC50 (L1210): 27 nM | Animals (Mus musculus [1]): 38% | Animals (Mus musculus [2]): 25% | Animals (Mus musculus [3]): 0% | Paw swelling (Mus musculus [4]): 2.15 mm | Animals (Mus musculus [5]): 0% | Animals (Mus musculus [6]): 25% | Paw swelling (Mus musculus [7]): 2.17 mm | Animals (Mus musculus [8]): 25% | Animals (Mus musculus [9]): 12% | Paw swelling (Mus musculus [10]): 2.24 mm | Paw swelling (Mus musculus [11]): 2.24 mm | Paw swelling (Mus musculus [12]): 2.16 mm | IC50 [13]: 37 nM | Paw swelling (Mus musculus [14]): 2.12 mm | Paw swelling (Mus musculus [15]): 2.26 mm | Paw swelling (Mus musculus [16]): 2.2 mm | Animals (Mus musculus [17]): 12% | Paw swelling (Mus musculus [18]): 2.15 mm | Animals (Mus musculus [19]): 0% | Paw swelling (Mus musculus [20]): 2.29 mm | Animals (Mus musculus [21]): 12% | Animals (Mus musculus [22]): 12% | Animals (Mus musculus [23]): 0% | Paw swelling (Mus musculus [24]): 2.28 mm | Paw swelling (Mus musculus [25]): 2.28 mm

CCc1c(CNc2ccc(C(=O)NC(CCC(=O)O)C(=O)O)cc2)cnc2nc(N)nc(N)c12 (stereo unspecified)
Paw swelling (Mus musculus [26]): 2.31 mm | IC50 (L1210): 1.9 nM | Animals (Mus musculus [27]): 38% | Animals (Mus musculus [28]): 71% | Animals (Mus musculus [29]): 62% | Animals (Mus musculus [30]): 50% | Paw swelling (Mus musculus [31]): 2.38 mm | Paw swelling (Mus musculus [32]): 2.29 mm | Paw swelling (Mus musculus [33]): 2.19 mm | Paw swelling (Mus musculus [34]): 2.43 mm | Animals (Mus musculus [35]): 0% | Animals (Mus musculus [36]): 12% | Paw swelling (Mus musculus [37]): 2.22 mm | Animals (Mus musculus [38]): 57% | Animals (Mus musculus [39]): 43% | IC50 [13]: 126 nM | Animals (Mus musculus [40]): 86% | Animals (Mus musculus [41]): 25% | Paw swelling (Mus musculus [42]): 2.34 mm | Animals (Mus musculus [43]): 62% | Paw swelling (Mus musculus [44]): 2.25 mm | Paw swelling (Mus musculus [45]): 2.32 mm | Paw swelling (Mus musculus [46]): 2.33 mm | Animals (Mus musculus [47]): 62% | Paw swelling (Mus musculus [48]): 2.42 mm
